Measured values taken from US20070116829A1, “Pharmaceutical Composition with High-Potency Sweetener” (THE COCA-COLA COMPANY, priority 2005, published 2007).

Legend:
[1] = Rate of dissolution in H2O at 25° C. of rebaudioside A polymorph and amorphous forms; format: physicochemical
[2] = format: physicochemical
Method: A solution of rebaudioside A (>97% pure by HPLC) was prepared in double distilled water (12.5 gm in 50 mL, 25% concentration) by stirring the mixture at 40° C. for 5 minutes. An amorphous form of rebaudioside A was formed by immediately using the clear solution for spray drying with the Lab-Plant spray drier SD-04 instrument (Lab-Plant Ltd., West Yorkshire, U.K.). The solution was fed through the feed pump into the nozzle atomizer which atomized it into a spray of droplets with the help of a constant flow of nitrogen/air. […] This dry powder (11-12 g, H2O 6.74%) was discharged continuously from the drying chamber and was collected in a bottle.

Row | Rate of dissolution in H2O at 25° C. (in words) [1] | Rate of dissolution in H2O at 25° C. ([1]; per 60 minutes) | Rate of dissolution in H2O at 25° C. ([1]; per 5 minutes) | solubility in water at room temperature [2] [%] | Compound
1 | Very low | (<0.2%/60 %/60 minutes | – | – | C=C1C[C@@]23CC[C@H]4[C@@](C)(CCC[C@@]4(C)C(=O)O[C@@H]4O[C@H](CO)[C@@H](O)[C@H](O)[C@H]4O)[C@@H]2CC[C@]1(O[C@@H]1O[C@H](CO)[C@@H](O)[C@H](O[C@@H]2O[C@H](CO)[C@@H](O)[C@H](O)[C@H]2O)[C@H]1O[C@@H]1O[C@H](CO)[C@@H](O)[C@H](O)[C@H]1O)C3 [Form 1, rebaudioside A]
2 | Intermediate | – | (<30%/5 %/5 minutes | – | C=C1C[C@@]23CC[C@H]4[C@@](C)(CCC[C@@]4(C)C(=O)O[C@@H]4O[C@H](CO)[C@@H](O)[C@H](O)[C@H]4O)[C@@H]2CC[C@]1(O[C@@H]1O[C@H](CO)[C@@H](O)[C@H](O[C@@H]2O[C@H](CO)[C@@H](O)[C@H](O)[C@H]2O)[C@H]1O[C@@H]1O[C@H](CO)[C@@H](O)[C@H](O)[C@H]1O)C3 [Form 2, rebaudioside A]
3 | High | – | (>30%/5 %/5 minutes | – | C=C1C[C@@]23CC[C@H]4[C@@](C)(CCC[C@@]4(C)C(=O)O[C@@H]4O[C@H](CO)[C@@H](O)[C@H](O)[C@H]4O)[C@@H]2CC[C@]1(O[C@@H]1O[C@H](CO)[C@@H](O)[C@H](O[C@@H]2O[C@H](CO)[C@@H](O)[C@H](O)[C@H]2O)[C@H]1O[C@@H]1O[C@H](CO)[C@@H](O)[C@H](O)[C@H]1O)C3 [Form 3, rebaudioside A]
4 | High | – | (>35.0%/5 %/5 minutes | > 35.0 | C=C1C[C@@]23CC[C@H]4[C@@](C)(CCC[C@@]4(C)C(=O)O[C@@H]4O[C@H](CO)[C@@H](O)[C@H](O)[C@H]4O)[C@@H]2CC[C@]1(O[C@@H]1O[C@H](CO)[C@@H](O)[C@H](O[C@@H]2O[C@H](CO)[C@@H](O)[C@H](O)[C@H]2O)[C@H]1O[C@@H]1O[C@H](CO)[C@@H](O)[C@H](O)[C@H]1O)C3 [Form 4, rebaudioside A]
